These results are taken from patent US20230339981A1, “KRAS G12D MODULATING COMPOUNDS” (priority 2022, published 2023).

In one experiment the target is GDP-loaded KRAS G12D (Homo sapiens (Human), UniProt P01116, G12D). Briefly: KRAS G12D (GDP) biochemical assay (TR-FRET probe displacement). The conditions noted are these: 2 hours. Format: binding. Here is the method: Example A. KRAS G12D (GDP) Biochemical Assay
Compounds were tested for binding to GDP-loaded KRAS G12D in a 384-well assay format using a TR-FRET probe displacement assay in buffer consisting of 50 mM Hepes (pH 7.4), 150 mM NaCl, 5 mM MgCl2 and 0.005% Tween-20. […] Compounds were serially diluted (1:3) in DMSO. The LabCyte ECHO Acoustic dispenser system was used to pre-spot the assay plates (384-well Non-Binding Surface plates, Corning, Catalog #3824) with 50 nL of compound. The compounds were pre-incubated with 5 μL of 2× final enzyme concentration for 30 minutes before adding 5 μL of 2× final concentration of Eu-streptavidin and TR-FRET probe (10 μL final reaction volume). The plates were incubated at room temperature for 2 hours before measuring TR-FRET ratio on the Envision plate reader. IC50 values were defined as the compound concentration that causes a 50% decrease in TR-FRET ratio and were calculated using a sigmoidal dose-response model to generate curve fits.
A general note: Time-resolved FRET reads energy transfer from a long-lived donor to a nearby acceptor.

Another experiment relates to GP2D (KRAS G12D) cells. Briefly: 2D cell viability assay (CellTiter-Glo). Format: cell-based. The conditions noted are these: GP2d, 96 h, 4 days. Here is the method:
Example B. 2D Cell Viability Assay
Compounds were tested in a 384-well format for their ability to inhibit the viability of GP2D (KRAS G12D) cells in 2D assays. Compounds were serially diluted (1:3) in DMSO. The LabCyte ECHO Acoustic dispenser system was used to pre-spot assay plates with 200 nL of test molecule per well. 1000 cells/well (40 μL volume per well) in RPMI medium with 10% FBS, and Penicillin-Streptomycin-Glutamine were plated in pre-spotted 384-well plates (Greiner, Catalog #781076) on the BioTEK EL406 liquid dispenser with a 5 μL dispensing cassette (BioTek 7170011). The plates were incubated at 37° C., 5% CO2 for 4 days before addition of CellTiter-Glo (CTG) reagent and measurement of luminescence signal. EC50 values were defined as the compound concentration that causes a 50% decrease in luminescence signal and were calculated using a sigmoidal dose-response model to generate curve fits.
(In general: In ATP-based viability assays light output follows the ATP content of the culture.)

A value given as a limit tells only on which side of the number the result lay.

Chain of GDP-loaded KRAS G12D (P01116-2 other isoform, or with tags, fused parts or gaps G12D): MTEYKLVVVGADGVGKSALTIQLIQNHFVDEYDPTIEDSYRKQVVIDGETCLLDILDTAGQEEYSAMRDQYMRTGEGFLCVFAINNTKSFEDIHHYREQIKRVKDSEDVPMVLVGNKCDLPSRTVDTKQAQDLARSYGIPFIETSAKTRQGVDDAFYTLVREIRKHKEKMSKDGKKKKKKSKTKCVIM

What is called IC50 is the midpoint of a concentration-inhibition curve. Read a low IC50 as greater potency in that assay. A word on the EC50: it is the concentration needed to bring the measured effect to its halfway point. High values mean a need for much substance, low ones an effect from little substance. On to `Oc1cc(-c2nc3c4c(nc(OC[C@@]56CCCN5C[C@H](F)C6)nc4c2F)N2CC4CCC(N4)[C@H]2CO3)c2ccccc2c1` (stereo in doubt) [Example 18, 4-((5aS,6S,9R)-1-fluoro-12-(((2R,7aS)-2-fluorotetrahydro-1H-pyrrolizin-7a(5H)-yl)methoxy)-5a,6,7,8,9,10-hexahydro-5H-4-oxa-3,10a,11,13,14-pentaaza-6,9-methanonaphtho[1,8-ab]heptalen-2-yl)naphthalen-2-ol], for which the IC50 on GDP-loaded KRAS G12D was over 1 µM. For the same compound, the EC50 with GP2D (KRAS G12D) cells was over 10 µM.

`Oc1cc(-c2nc3c4c(nc(OC[C@@]56CCCN5C[C@H](F)C6)nc4c2F)N2CC4CCC(N4)[C@@H]2CO3)c2ccccc2c1` (stereo in doubt) [Example 21, 4-((5aR,6S,9R)-1-fluoro-12-(((2R,7aS)-2-fluorotetrahydro-1H-pyrrolizin-7a(5H)-yl)methoxy)-5a,6,7,8,9,10-hexahydro-5H-4-oxa-3,10a,11,13,14-pentaaza-6,9-methanonaphtho[1,8-ab]heptalen-2-yl)naphthalen-2-ol] registered an IC50 on GDP-loaded KRAS G12D of 2.1 µM. The EC50 with GP2D (KRAS G12D) cells worked out at 3.1 µM.

At GDP-loaded KRAS G12D, `C=C(Cl)c1c(C)ccc2cc(O)cc(-c3nc4c5c(nc(OC[C@@]67CCCN6C[C@H](F)C7)nc5c3F)N3CC5CCC(N5)[C@H]3CO4)c12` (stereo in doubt) [Example 74, 5-(1-chlorovinyl)-4-((5aS,6R,9S)-1-fluoro-12-(((2R,7aS)-2-fluorotetrahydro-1H-pyrrolizin-7a(5H)-yl)methoxy)-5a,6,7,8,9,10-hexahydro-5H-4-oxa-3,10a,11,13,14-pentaaza-6,9-methanonaphtho[1,8-ab]heptalen-2-yl)-6-methylnaphthalen-2-ol] displayed an IC50 of 0.016 µM. Besides, a half-maximal effect in the experiment on GP2D (KRAS G12D) cells (EC50) was put at 0.31 µM.

In turn, `C#Cc1c(F)ccc2cccc(-c3nc4c5c(nc(OC[C@@]67CCCN6C[C@@H](OC(F)(F)F)C7)nc5c3F)N3C[C@H]5CC[C@H](N5)[C@H]3CC4)c12` (stereo in doubt) [Example 140, (5aR,6S,9R)-2-(8-ethynyl-7-fluoronaphthalen-1-yl)-1-fluoro-12-((cis-2-(trifluoromethoxy)tetrahydro-1H-pyrrolizin-7a(5H)-yl)methoxy)-4,5,5a,6,7,8,9,10-octahydro-3,10a,11,13,14-pentaaza-6,9-methanonaphtho[1,8-ab]heptalene] displayed an EC50 with GP2D (KRAS G12D) cells of 0.0759 µM.

With `C#Cc1c(F)ccc2cc(O)cc(-c3nc4c5c(nc(OC[Si](C)(C)CN6CCOCC6)nc5c3F)N3C[C@H]5CC[C@H](N5)[C@H]3CO4)c12` [Example 29, 4-((5aS,6S,9R)-12-((dimethyl(morpholinomethyl)silyl)methoxy)-1-fluoro-5a,6,7,8,9,10-hexahydro-5H-4-oxa-3,10a,11,13,14-pentaaza-6,9-methanonaphtho[1,8-ab]heptalen-2-yl)-5-ethynyl-6-fluoronaphthalen-2-ol], the concentration for a half-maximal effect (EC50) in the experiment on GP2D (KRAS G12D) cells is over 1 µM.

Compound `Fc1ccc2cccc(-c3nc4c5c(nc(OC[C@@]67CCCN6C[C@H](F)C7)nc5c3F)N3C[C@H]5CC[C@H](N5)[C@H]3CC4)c2c1OC(F)(F)F` [Example 65, (5aR,6S,9R)-1-fluoro-2-(7-fluoro-8-(trifluoromethoxy)naphthalen-1-yl)-12-(((2R,7aS)-2-fluorotetrahydro-1H-pyrrolizin-7a(5H)-yl)methoxy)-4,5,5a,6,7,8,9,10-octahydro-3,10a,11,13,14-pentaaza-6,9-methanonaphtho[1,8-ab]heptalene] returned a 50% effective concentration (EC50) with GP2D (KRAS G12D) cells of 0.45 µM.

Compound `C#Cc1c(F)ccc2cc(O)cc(-c3nc4c5c(nc(OC[C@@]67CCCN6C[C@H](F)C7)nc5c3F)N3C[C@H]5CC[C@H](N5)[C@@H]3CC4)c12` [Example 133, 5-ethynyl-6-fluoro-4-((5aS,6S,9R)-1-fluoro-12-(((2R,7aS)-2-fluorotetrahydro-1H-pyrrolizin-7a(5H)-yl)methoxy)-4,5,5a,6,7,8,9,10-octahydro-3,10a,11,13,14-pentaaza-6,9-methanonaphtho[1,8-ab]heptalen-2-yl)naphthalen-2-ol] gave an EC50 with GP2D (KRAS G12D) cells of 0.0011 µM.
